# Publication PMC7490411 (Signal Transduction and Targeted Therapy, 2020)
# Assays:
# [1] = system: IGF1R; assay: KINOMEscan; type: binding; details: 1000 nM
# [2] = system: MEK5; assay: KINOMEscan; type: binding; details: 1000 nM
# [3] = system: FGFR3; assay: KINOMEscan; type: binding; details: 1000 nM
# [4] = target: T1, EGFR (Homo sapiens, UniProt P00533); assay: KINOMEscan; type: binding; details: 1000 nM
# T1 construct: purchased Invitrogen (Carlsbad, CA, USA)
# [5] = system: REC-1 cells bone marrow engraftment; assay: REC-1 cells bone marrow engrafted mouse model; type: in vivo; details: REC-1 bone marrow engraftment
# Method: Five-week old female NOD-SCID mice were purchased from the Beijing Vital River Laboratory Animal Technology Co., Ltd (Beijing, China). All animals were housed in a specific pathogen free facility and used according to the animal care regulations of Hefei Institutes of Physical Science, Chinese Academy of Sciences. NOD-SCID mice were induced by intraperitoneal injection of cyclophosphamide (CTX) 50 mg/kg daily for two days. 8 million REC-1 cells in 0.3 mL RPMI1640 medium were injected by intravenous after 24 h. […] Mice were monitored daily and were euthanized when moribund or at early signs of hind limb paralysis.
# [6] = system: ULK1; assay: KINOMEscan; type: binding; details: 1000 nM
# [7] = system: PRKD3; assay: KINOMEscan; type: binding; details: 1000 nM
# [8] = system: IRAK4; assay: KINOMEscan; type: binding; details: 1000 nM
# [9] = system: TGFBR2; assay: KINOMEscan; type: binding; details: 1000 nM
# [10] = system: VRK2; assay: KINOMEscan; type: binding; details: 1000 nM
# [11] = system: INSRR; assay: KINOMEscan; type: binding; details: 1000 nM
# [12] = system: ERBB2; assay: KINOMEscan; type: binding; details: 1000 nM
# [13] = system: MET(Y1235D); assay: KINOMEscan; type: binding; details: 1000 nM
# [14] = system: NLK; assay: KINOMEscan; type: binding; details: 1000 nM
# [15] = system: FES; assay: KINOMEscan; type: binding; details: 1000 nM
# [16] = system: PLK2; assay: KINOMEscan; type: binding; details: 1000 nM
# [17] = system: PKAC-beta; assay: KINOMEscan; type: binding; details: 1000 nM
# [18] = system: CSK; assay: KINOMEscan; type: binding; details: 1000 nM
# [19] = system: PAK4; assay: KINOMEscan; type: binding; details: 1000 nM
# [20] = system: ALK; assay: KINOMEscan; type: binding; details: 1000 nM
# [21] = system: EGFR(G719C); assay: KINOMEscan; type: binding; details: 1000 nM
# [22] = system: FLT3(N841I); assay: KINOMEscan; type: binding; details: 1000 nM
# [23] = system: TIE1; assay: KINOMEscan; type: binding; details: 1000 nM
# [24] = system: CDC2L5; assay: KINOMEscan; type: binding; details: 1000 nM
# [25] = system: PCTK1; assay: KINOMEscan; type: binding; details: 1000 nM
# [26] = system: TNNI3K; assay: KINOMEscan; type: binding; details: 1000 nM
# [27] = system: MKK7; assay: KINOMEscan; type: binding; details: 1000 nM
# [28] = system: CAMKK2; assay: KINOMEscan; type: binding; details: 1000 nM
# [29] = system: NEK11; assay: KINOMEscan; type: binding; details: 1000 nM
# [30] = system: CAMK1; assay: KINOMEscan; type: binding; details: 1000 nM
# [31] = target: T2, BTK (Homo sapiens, UniProt Q06187); assay: KINOMEscan; type: binding; details: 1000 nM
# T2 construct: purchased Invitrogen (Carlsbad, CA, USA)
# T2 sequence (Q06187 whole entry): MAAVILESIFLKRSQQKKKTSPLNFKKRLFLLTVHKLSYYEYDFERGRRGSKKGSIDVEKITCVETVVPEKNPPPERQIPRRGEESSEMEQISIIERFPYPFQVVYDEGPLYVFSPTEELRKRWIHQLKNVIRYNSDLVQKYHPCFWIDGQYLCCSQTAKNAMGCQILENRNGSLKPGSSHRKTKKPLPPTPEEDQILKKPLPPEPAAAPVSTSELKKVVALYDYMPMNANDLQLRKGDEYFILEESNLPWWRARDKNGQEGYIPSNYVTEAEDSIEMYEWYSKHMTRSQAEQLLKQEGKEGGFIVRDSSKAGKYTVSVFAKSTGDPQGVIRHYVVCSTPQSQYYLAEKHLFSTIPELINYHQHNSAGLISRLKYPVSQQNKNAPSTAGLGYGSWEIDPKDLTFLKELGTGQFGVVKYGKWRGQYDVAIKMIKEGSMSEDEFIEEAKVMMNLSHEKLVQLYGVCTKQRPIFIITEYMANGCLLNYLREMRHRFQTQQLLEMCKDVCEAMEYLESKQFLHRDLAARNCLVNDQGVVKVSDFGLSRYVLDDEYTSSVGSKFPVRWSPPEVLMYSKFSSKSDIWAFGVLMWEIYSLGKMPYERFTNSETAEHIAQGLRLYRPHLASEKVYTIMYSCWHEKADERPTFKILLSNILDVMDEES
# [32] = system: SU-DHL-2; assay: anti-proliferative CellTiter-Glo assay; type: cell-based; details: Homo sapiens, SU-DHL-2, 72 h
# Method: (§1) Cell viability was measured using the CellTiter–Glo assay (Promega, USA) according to the manufacturer’s instructions, and […] was measured in a Bio-red Microplate reader (Bio-Red, USA).
# [33] = system: REC-1; assay: anti-proliferative CellTiter-Glo assay; type: cell-based; details: Homo sapiens, Rec1; REC-1, 72 h
# Method: as §1
# [34] = system: TMD8; assay: anti-proliferative CellTiter-Glo assay; type: cell-based; details: Homo sapiens, TMD8, 72 h
# Method: as §1
# [35] = system: Pfeiffer; assay: anti-proliferative CellTiter-Glo assay; type: cell-based; details: Homo sapiens, 72 h
# Method: as §1
# [36] = system: DOHH2; assay: anti-proliferative CellTiter-Glo assay; type: cell-based; details: Homo sapiens, DOHH-2; DOHH2, 72 h
# Method: as §1
# [37] = system: WSU-DLCL2; assay: anti-proliferative CellTiter-Glo assay; type: cell-based; details: Homo sapiens, WSUDLCL2; WSU-DLCL2, 72 h
# Method: as §1
# [38] = system: JEKO-1; assay: anti-proliferative CellTiter-Glo assay; type: cell-based; details: Homo sapiens, JeKo-1, 72 h
# Method: as §1
# [39] = system: Ramos; assay: anti-proliferative CellTiter-Glo assay; type: cell-based; details: Homo sapiens, 72 h
# Method: as §1
# [40] = system: SU-DHL-6; assay: anti-proliferative CellTiter-Glo assay; type: cell-based; details: Homo sapiens, SU-DHL-6, 72 h
# Method: as §1
# [41] = system: U2932; assay: anti-proliferative CellTiter-Glo assay; type: cell-based; details: Homo sapiens, U2932, 72 h
# Method: as §1
# [42] = system: Raji; assay: anti-proliferative CellTiter-Glo assay; type: cell-based; details: Homo sapiens, 72 h
# Method: as §1
# [43] = system: PIP5K1C; assay: KINOMEscan; type: binding; details: 1000 nM
# [44] = system: PKMYT1; assay: KINOMEscan; type: binding; details: 1000 nM
# [45] = system: PFTAIRE2; assay: KINOMEscan; type: binding; details: 1000 nM
# [46] = system: NEK6; assay: KINOMEscan; type: binding; details: 1000 nM
# [47] = system: MST1; assay: KINOMEscan; type: binding; details: 1000 nM
# [48] = system: MLK1; assay: KINOMEscan; type: binding; details: 1000 nM
# [49] = system: ERK4; assay: KINOMEscan; type: binding; details: 1000 nM
# [50] = system: GRK4; assay: KINOMEscan; type: binding; details: 1000 nM
# T1 sequence (P00533 25-1210): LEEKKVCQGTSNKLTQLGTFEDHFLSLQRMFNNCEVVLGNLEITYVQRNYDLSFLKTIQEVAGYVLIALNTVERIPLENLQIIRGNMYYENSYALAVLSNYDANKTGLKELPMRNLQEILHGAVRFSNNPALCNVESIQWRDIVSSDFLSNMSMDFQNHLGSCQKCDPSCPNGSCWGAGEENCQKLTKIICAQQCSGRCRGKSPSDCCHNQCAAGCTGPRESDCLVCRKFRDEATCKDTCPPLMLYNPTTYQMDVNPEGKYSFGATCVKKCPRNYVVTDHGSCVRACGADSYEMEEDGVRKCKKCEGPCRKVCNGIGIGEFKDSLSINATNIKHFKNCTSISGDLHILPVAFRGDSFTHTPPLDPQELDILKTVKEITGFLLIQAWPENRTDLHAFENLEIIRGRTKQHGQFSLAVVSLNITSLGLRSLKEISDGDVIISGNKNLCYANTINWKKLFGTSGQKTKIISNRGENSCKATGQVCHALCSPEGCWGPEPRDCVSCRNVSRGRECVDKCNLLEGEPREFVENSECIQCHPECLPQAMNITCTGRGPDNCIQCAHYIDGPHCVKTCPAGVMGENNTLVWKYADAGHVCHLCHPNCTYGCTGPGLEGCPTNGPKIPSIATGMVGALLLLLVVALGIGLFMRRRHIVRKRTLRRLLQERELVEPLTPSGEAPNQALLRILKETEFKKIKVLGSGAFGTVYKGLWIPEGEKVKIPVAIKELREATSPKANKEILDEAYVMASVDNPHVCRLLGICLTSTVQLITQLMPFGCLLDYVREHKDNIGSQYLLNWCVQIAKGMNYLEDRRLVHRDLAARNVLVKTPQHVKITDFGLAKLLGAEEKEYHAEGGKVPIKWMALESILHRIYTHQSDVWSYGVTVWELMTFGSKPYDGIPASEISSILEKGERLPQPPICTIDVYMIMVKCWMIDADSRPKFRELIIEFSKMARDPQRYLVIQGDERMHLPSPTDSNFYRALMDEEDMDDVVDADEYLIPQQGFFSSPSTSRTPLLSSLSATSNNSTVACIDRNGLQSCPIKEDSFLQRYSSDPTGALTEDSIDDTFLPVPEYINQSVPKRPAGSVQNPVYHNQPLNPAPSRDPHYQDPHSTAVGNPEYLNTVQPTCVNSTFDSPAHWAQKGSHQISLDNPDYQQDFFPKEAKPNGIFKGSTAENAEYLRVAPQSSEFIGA
smiles,measurement,setting,value
C=CC(=O)Nc1cc(Nc2cc(-c3cccc(NC(=O)c4cc5c(s4)CCCC5)c3C)cn(C)c2=O)ccc1N1CCN(CC)CC1 [CHMFL-BTK-85],Percent Control,[1],76%
same,Percent Control,[2],100%
same,Percent Control,[3],82%
same,kinase binding remaining (percent of control) at 1 µM,[4],58%
same,median survival time,[5]; 50 mg/kg/day p.o.,42 days
same,median survival time,[5]; 150 mg/kg/day p.o.,63 days
same,Percent Control,[6],100%
same,Percent Control,[7],100%
same,Percent Control,[8],100%
same,Percent Control,[9],100%
same,Percent Control,[10],94%
same,Percent Control,[11],90%
same,Percent Control,[12],99%
same,Percent Control,[13],97%
same,Percent Control,[14],100%
same,Percent Control,[15],98%
same,Percent Control,[16],100%
same,Percent Control,[17],80%
same,Percent Control,[18],80%
same,Percent Control,[19],100%
same,Percent Control,[20],86%
same,Percent Control,[21],81%
same,Percent Control,[22],83%
same,Percent Control,[23],87%
same,Percent Control,[24],100%
same,Percent Control,[25],100%
same,Percent Control,[26],93%
same,Percent Control,[27],99%
same,Percent Control,[28],100%
same,Percent Control,[29],100%
same,Percent Control,[30],100%
same,percent of control binding at 1 µM,[31],0.9%
same,GI50,[32],570 ± 350 nM
same,GI50,[33],28 ± 7 nM
same,GI50,[34],17 ± 4 nM
same,GI50,[35],290 ± 140 nM
same,GI50,[36],700 ± 150 nM
same,GI50,[37],1400 ± 210 nM
same,GI50,[38],1100 ± 240 nM
same,GI50,[39],1300 ± 100 nM
same,GI50,[40],970 ± 220 nM
same,GI50,[41],800 ± 96 nM
same,GI50,[42],1500 ± 58 nM
same,Percent Control,[43],99%
same,Percent Control,[44],63%
same,Percent Control,[45],99%
same,Percent Control,[46],100%
same,Percent Control,[47],100%
same,Percent Control,[48],81%
same,Percent Control,[49],100%
same,Percent Control,[50],88%
